Reference: patent US20240398759A1, “INHIBITING SEROTONIN TRANSPORTER PROTEIN (5-HTT)” (priority 2022, published 2024)
Where two headings read alike, the source gives them in different places.

Legend:
[1] = target: SERT (Homo sapiens (Human), UniProt P31645); test: SERT inhibition assay (Neurotransmitter Transporter fluorescence uptake, stable 5HTT HEK293 cells); format: cell-based; conditions: n=6 ± SD
Experimental: SERT inhibition was measured using a Neruotransmitter Transportation Fluorescence assay. Briefly, stable 5HTT HEK293 cells were prepared in a 384 microwell plate (20,000 cells per 20 μL well). Compounds were prepared by in assay buffer (20 mM HEPES in HBSS, 0.1% BSA) at a top concentration of 1 μM. 10 doses of test compound (3-fold serial dilution) were added to the plated cells and incubated for 30 minutes at 37° C. 25 μL of dye solution (Molecular Devices Neurotransmitter Transporter Uptake Assay Kit) was added per well and incubated for 30 minutes at 37° C.

[2] = target: PDE4A1A (Homo sapiens (Human), UniProt P27815); test: PDE4 inhibition assay (fluorescence polarization), PDE4A1A; format: biochemical; conditions: 10 μM
Experimental: (§1) 100 μM dilutions of the test compounds were prepared in assay buffer (10% DMSO concentration) and 5 μl of the dilution was added to a 50 μl reaction so that the final concentration of DMSO is 1% in all of reactions. The enzymatic reactions were conducted at room temperature for 60 minutes in a 50 μl mixture containing PDE assay buffer, 100 nM FAM-cAMP, a PDE enzyme (Table 2.3.1) and the test compound (Section 2.2). After the enzymatic reaction, 100 μl of a binding solution (1:100 dilution of the binding agent with the binding agent diluent) was added to each reaction and the reaction was performed at room temperature for 60 minutes. Fluorescence intensity was measured at an excitation of 485 nm and an emission of 528 nm using a Tecan Infinite M1000 microplate reader.
(§2) • 1) Dilute 20 μM FAM-Cyclic-3′, 5′-AMP stock 100-fold with PDE buffer to make a 200 nM solution. • 2) Add 25 μl of FAM-Cyclic-3′,5′-AMP (200 nM) to each well designated “Positive Control”, “Test Inhibitor”, and “Substrate Control”. • 3) Add 20 μl of PDE assay buffer to each well designated “Substrate Control” and 45 μl of PDE assay buffer to each well designated “Blank”. • 4) Add 5 μl of inhibitor solution to each well designated “Test Inhibitor”. For the wells labeled “Positive Control”, “Substrate Control” and “Blank”, add 5 μl of the same solution without inhibitor (inhibitor buffer). • 5) Thaw PDE on ice. Upon first thaw, briefly spin tube containing enzyme to recover the full contents of the tube. • 6) Dilute PDE4 in PDE buffer to 7.5 pg/μl (0.15 ng/reaction)*. Initiate reaction by adding 20 µl of PDE4 (7.5 pg/μl) to the wells designated “Positive Control” and “Test Inhibitor.” • 7) Incubate at room temperature for 1 hour.
(§3) • 1) Mix binding agent thoroughly and dilute binding agent 1:100 with binding agent diluent. • 2) Add 100 μl diluted binding agent to each microwell. Incubate at room temperature for 1 hour with slow shaking. • 3) Read the fluorescent polarization of the sample in a microtiter-plate reader equipped for the measurement of fluorescence polarization, capable of excitation at wavelengths ranging from 485±5 nm and detection of emitted light ranging from 528±10 nm. Blank value is subtracted from all other values. • 4) Data Analysis: PDE activity assays were performed in duplicate at each concentration. Fluorescence intensity is converted to fluorescence polarization using the Tecan Magellan6 software. The fluorescence polarization data were analyzed using the computer software, Graphpad Prism. The fluorescence polarization (FPt) in absence of the compound in each data set was defined as 100% activity. In the absence of PDE and the compound, the value of fluorescent polarization (FPb) in each data set was defined as 0% activity. The percent activity in the presence of the compound was calculated according to the following equation: % activity=(FP−FPb)/(FPt−FPb)×100%, where FP=the fluorescence polarization in the presence of the compound. The values of % activity versus a series of compound concentrations were then plotted using non-linear regression analysis of sigmoidal dose-response curve generated with the equation Y=B+(T−B)/1+10^(LogEC50−X)×Hill Slope), where Y=percent activity, B=minimum percent activity, T=maximum percent activity, X=logarithm of compound and Hill Slope=slope factor or Hill coefficient. The IC50 value was determined by the concentration causing a half-maximal percent activity.

[3] = target: PDE4B2 (Homo sapiens (Human), UniProt Q07343); test: PDE4 inhibition assay (fluorescence polarization), PDE4B2; format: biochemical
Experimental: as §1, §2, §3

[4] = target: PDE4C1 (Homo sapiens (Human), UniProt Q08493); test: PDE4 inhibition assay (fluorescence polarization), PDE4C1; format: biochemical; conditions: 10 μM
Experimental: as §1, §2, §3

[5] = target: PDE4D2 (Homo sapiens (Human), UniProt Q08499); test: PDE4 inhibition assay (fluorescence polarization), PDE4D2; format: biochemical; conditions: 10 μM
Experimental: as §1, §2, §3

[6] = test system: mouse behavior; test: SmartCube system behavioral signature in mice; format: in vivo
Text: To confirm that compound 018 and Compound 019 has antidepressant effects, the SmartCube® system (Psychogenics, Inc., Paramus, NJ) was used. This system uses features derived from mouse behavioral data to classify compounds for their ability to treat neuro-psychiatric symptoms by comparing the features to a proprietary reference database of behavioral feature sets that are linked to classes of marketed drugs known to treat neuro-psychiatric symptoms. Thus the system can be used as a model to identify the psychiatric effect of a compound by comparing the effects of the compounds against drugs with known validated effects. By comparing the responses of animals to known drugs, the test drug can be categorized according to its function; for example, hallucinogen, anxiogenic, analgesic, cognitive enhancer, psychostimulant, mood stabilizer, high dose anti-psychotic, anti-psychotic, sedative/hypnotic, anxiolytic, high dose antidepressant, antidepressant.
Once all features are extracted from the raw data through an automated pipeline, proprietary bioinformatics algorithms are used to decorrelate groups of features and find the combination of values that best separate different groups of interest. For each compound, at each dose, they system provides a probability that the drug is active and breaks down such putative activity into the different classes of interest.
Mice were tested in the SmartCube® system where they were exposed to a sequence of challenges during the 45-minute test period. The cubes were cleaned between each run.
For class and subclass analysis, a reference data set has been built from hundreds of drug doses in multiple drug classes plus a control group. Each reference drug was tested at multiple doses appropriate for that drug in mice. The best performing classifiers were chosen from our evaluation tests and two separate types of classifiers were built that make independent predictions at drug class and subclass levels. The Class consists of drugs that are currently in the market or have been clinically validated for that specific indication. The sub-class consists of both marketed drugs and other compounds that have been mechanistically validated and is a larger set than the Class.
Data was processed using proprietary computer vision and data mining algorithms and the results were compared to signatures of the reference compounds in our database. Multiple analyses of the data was performed to quantitatively produce independent predictions of drug class, and drug subclass. The behavioral signatures of the test drug were evaluated using these classifiers to predict potential therapeutic utility.

[7] = human, 1 µM
Experimental: (§4) A 2.5 uL aliquot of 100 μM test compound was incubated with 247.5 uL of cryopreserved hepatocytes suspended in serum-free incubation medium at 1 million viable cells/mL. The mixture was incubated at 37° C. and shaken at 500 rpm for the designated time points (0.5, 5, 10, 15, 30, 60, 90, or 120 min). At each time point, 25 uL aliquot of incubation mixture was transferred to 125 uL of cold acetonitrile containing internal standard, followed by centrifugation for 30 min at 3,220 g. 100 uL of supernatant was mixed with 100 uL of distilled water for analysis by LC-MS/MS. Peak area ratios were determined from extracted ion chromatograms and percent recovery was calculated.

[8] = beagle, dog, in vivo
Text: (§5) HPLC Instrument: Shimsadzu (DGU-20A5R, Serial No: L20705621435 IX; LC-30AD Serial No: L20555611905 AE and L20555611816 AE; SIL-L30AC, Serial No: L20565605499 AE; Rack Changer II Serial No. L20585601125 SS; CTO20A: Serial No. L20205620413 CD; CBM-20A: Serial No. L20235636200 CD) • MS: AB API 5500 LC/MS/MS instrument (Serial No. EF221221812) • Column: Phenomenex Synergi 2.5 μm Polar-RP 100A. (50×3 mm) • Mobile Phase: (A) 5% Acetonitrile in Water (0.1% Formic acid); (B) 95% Acetonitrile in Water (0.1% Formic acid) • Samples: 50 μL of plasma sample+5 μL of blank solution+200 μL of acetonitrile for PPE (protein precipitation extraction).
(§6) The desired serial concentrations of working solutions were achieved by diluting stock solution of analyte with 50% acetonitrile in water solution. 5 μL of working solutions (5, 10, 20, 50, 100, 500, 1000, 5000, 10000 ng/mL) were added to 50 μL of the blank Beagle Dog plasma to achieve calibration standards of 0.5˜1000 ng/mL (0.5, 1, 2, 5, 10, 50, 100, 500, 1000 ng/mL) in a total volume of 55 μL. Five quality control samples at 1 ng/mL, 2 ng/mL, 5 ng/mL, 50 ng/mL and 800 ng/mL for plasma were prepared independently of those used for the calibration curves. These QC samples were prepared on the day of analysis in the same way as calibration standards.
(§7) 55 μL standards, 55 μL QC samples and 55 μL unknown samples 50 μL plasma with 5 μL blank solution) were added to 200 μL of acetonitrile containing IS mixture for precipitating protein respectively. Then the samples were vortexed for 30 s. After centrifugation at 4 degree Celsius, 3900 rpm for 15 min, the supernatant was diluted 3 times with water.

[9] = in vivo; conditions: beagle, dog
Text: as §5, §6, §7

[10] = in vitro; conditions: human hepatocytes
Experimental: as §4

[11] = Hepatocyte metabolism (stability in cryopreserved hepatocytes); conditions: human hepatocytes
Experimental: as §4

Chain of PDE4A1A (P27815 other isoform, or with tags, fused parts or gaps): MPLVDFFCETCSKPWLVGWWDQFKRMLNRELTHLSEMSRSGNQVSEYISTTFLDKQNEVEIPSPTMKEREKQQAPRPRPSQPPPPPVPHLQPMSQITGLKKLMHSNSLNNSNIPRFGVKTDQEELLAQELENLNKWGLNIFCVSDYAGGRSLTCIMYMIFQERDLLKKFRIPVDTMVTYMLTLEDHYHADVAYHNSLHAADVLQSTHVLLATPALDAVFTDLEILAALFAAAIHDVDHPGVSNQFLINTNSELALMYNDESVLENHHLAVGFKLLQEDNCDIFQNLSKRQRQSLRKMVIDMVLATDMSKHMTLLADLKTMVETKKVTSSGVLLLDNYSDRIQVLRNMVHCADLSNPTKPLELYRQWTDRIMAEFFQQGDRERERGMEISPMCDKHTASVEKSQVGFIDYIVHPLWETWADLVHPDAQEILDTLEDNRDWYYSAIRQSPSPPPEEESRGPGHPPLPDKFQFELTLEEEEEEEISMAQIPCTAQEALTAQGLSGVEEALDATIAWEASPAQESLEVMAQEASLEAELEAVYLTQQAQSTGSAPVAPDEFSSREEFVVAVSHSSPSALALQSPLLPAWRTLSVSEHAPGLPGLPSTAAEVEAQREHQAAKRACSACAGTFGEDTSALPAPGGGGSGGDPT
Chain of PDE4B2 (Q07343 other isoform, or with tags, fused parts or gaps): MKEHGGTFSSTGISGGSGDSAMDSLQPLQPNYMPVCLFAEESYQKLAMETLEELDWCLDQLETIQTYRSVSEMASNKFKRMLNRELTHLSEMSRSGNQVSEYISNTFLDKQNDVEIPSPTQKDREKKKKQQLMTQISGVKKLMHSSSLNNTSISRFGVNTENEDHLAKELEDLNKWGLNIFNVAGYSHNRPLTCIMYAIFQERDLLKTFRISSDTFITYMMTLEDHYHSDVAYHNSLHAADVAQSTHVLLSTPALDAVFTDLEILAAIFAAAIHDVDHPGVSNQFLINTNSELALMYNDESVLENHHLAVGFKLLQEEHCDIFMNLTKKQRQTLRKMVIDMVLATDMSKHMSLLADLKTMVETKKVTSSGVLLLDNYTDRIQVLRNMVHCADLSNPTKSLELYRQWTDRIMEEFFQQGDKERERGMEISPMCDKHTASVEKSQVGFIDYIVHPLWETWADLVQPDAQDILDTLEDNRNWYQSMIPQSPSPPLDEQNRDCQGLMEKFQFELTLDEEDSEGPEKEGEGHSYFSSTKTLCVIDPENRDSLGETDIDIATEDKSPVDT
Chain of PDE4D2 (Q08499 303-809): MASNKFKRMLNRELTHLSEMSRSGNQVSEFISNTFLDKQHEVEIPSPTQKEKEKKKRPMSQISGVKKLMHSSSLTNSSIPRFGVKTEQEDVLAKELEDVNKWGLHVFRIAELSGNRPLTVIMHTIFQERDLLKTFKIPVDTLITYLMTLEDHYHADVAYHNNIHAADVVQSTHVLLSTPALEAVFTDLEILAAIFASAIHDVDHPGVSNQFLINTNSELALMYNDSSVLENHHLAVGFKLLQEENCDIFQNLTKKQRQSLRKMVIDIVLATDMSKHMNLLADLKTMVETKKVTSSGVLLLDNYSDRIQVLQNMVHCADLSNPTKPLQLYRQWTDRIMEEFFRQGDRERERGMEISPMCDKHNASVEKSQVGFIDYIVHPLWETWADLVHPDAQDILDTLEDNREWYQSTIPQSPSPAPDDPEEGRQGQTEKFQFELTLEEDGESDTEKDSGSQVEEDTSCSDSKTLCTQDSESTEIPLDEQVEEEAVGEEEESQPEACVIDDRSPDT
Chain of PDE4C1 (Q08493 whole entry): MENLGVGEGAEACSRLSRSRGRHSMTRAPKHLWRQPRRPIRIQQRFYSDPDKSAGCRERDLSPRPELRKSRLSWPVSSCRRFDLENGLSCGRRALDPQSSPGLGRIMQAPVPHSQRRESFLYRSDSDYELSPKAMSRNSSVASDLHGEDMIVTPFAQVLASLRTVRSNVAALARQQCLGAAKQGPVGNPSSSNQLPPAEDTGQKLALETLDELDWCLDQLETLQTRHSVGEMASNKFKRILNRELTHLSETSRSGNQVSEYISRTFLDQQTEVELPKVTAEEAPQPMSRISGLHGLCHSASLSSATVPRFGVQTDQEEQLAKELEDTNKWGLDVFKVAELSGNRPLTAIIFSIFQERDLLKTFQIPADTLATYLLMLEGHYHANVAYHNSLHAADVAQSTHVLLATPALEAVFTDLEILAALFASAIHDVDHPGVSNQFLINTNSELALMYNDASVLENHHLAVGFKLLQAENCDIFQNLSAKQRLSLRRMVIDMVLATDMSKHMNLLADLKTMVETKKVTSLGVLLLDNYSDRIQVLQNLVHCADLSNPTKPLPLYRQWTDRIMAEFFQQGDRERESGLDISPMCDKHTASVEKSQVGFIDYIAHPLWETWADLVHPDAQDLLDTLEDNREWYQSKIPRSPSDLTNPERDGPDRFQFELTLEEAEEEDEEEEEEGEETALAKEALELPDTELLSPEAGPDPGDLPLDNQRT

## COc1ccc([C@@]23CC[C@@H](O)C[C@@H]2N(C)CC3)cc1OC [Compound 018, (3aS,6R,7aS)-3a-(3,4-dimethoxyphenyl)-1-methyloctahydro-1H-indol-6-ol]
[1]
  IC50: 21.9 ± 8 nM
[2]
  PDE4A1A % INH @ 10 μM: 5%
[2]; read-out: PDE4A1A % INH @ 10 μM
  inhibition at 10 µM: ≤ 5%
[3]
  PDE4B2 % INH @ 10 μM: 3%
[3]; read-out: PDE4B2 % INH @ 10 μM
  inhibition at 10 µM: ≤ 5%
[4]
  PDE4C1 % INH @ 10 μM: 1%
[4]; listed as Compound 18
  PDE4C1 % INH @ 10 μM: no more than 5%
[5]
  PDE4D2 %INH @ 10 μM: 4%
[5]; read-out: PDE4D2 %INH @ 10 μM
  inhibition at 10 µM: ≤ 5%
[6]; mice, 3 mg/kg
  behavioral activity: < 40%
  behavioral activity (in words): behaviorally inactive
[6]; mice, 10, 30 and 100 mg/kg
  signature in class and subclass: robust antidepressant-like signature with a small portion showing psychostimulant-like signature
[7]
  % QH: 13%
  CLHB: 3 mL/min/kg
[8]; iv, 2 mg/kg
  AUC_% Extrap_obs: 0.26%
  AUClast/D: 355
  Cl_obs: 47.6 mL/min/kg
[8]; po, 10 mg/kg
  AUC_% Extrap_obs: 5.10%
  AUClast/D: 14.4
  F: 4.3%
[9]; iv, 2 mg/kg
  AUC(0-inf): 712 ng·h/mL
  AUC(0-t): 710 ng·h/mL
  C0: 6250 ng/mL
  MRT inf: 0.71 h
  half-life: 1.78 h
[9]; po, 10 mg/kg
  AUC(0-inf): 151 ng·h/mL
  AUC(0-t): 144 ng·h/mL
  Cmax: 84.4 ng/mL
  MRT inf: 3.95 h
  Tmax: 0.28 h
  half-life: 5.95 h
[10]
  CLint scaled at 1 µM: 3 mL/min/kg
  half-life at 1 µM: > 2 h
  hepatocyte CLint at 1 µM: 1 µL/min/1e6 cells
[11]
  Extraction Ratio: 0.13
  t1/2: >2 h

## COc1ccc(C23C=CC(O)CC2N(C)CC3)cc1OC [Compound 020, (S, R, S) Mesembrenol]
[2]
  PDE4A1A % INH @ 10 μM: 68%
[3]
  PDE4B2 % INH @ 10 μM: 62%
[4]
  PDE4C1 % INH @ 10 μM: 32%
[5]
  PDE4D2 %INH @ 10 μM: 72%

## COc1ccc(C23C=CC(O)CC2N(C)CC3)cc1OC [Compound 021, (R, R, S) Mesembrenol]
[2]
  PDE4A1A % INH @ 10 μM: 22%
[3]
  PDE4B2 % INH @ 10 μM: 12%
[4]
  PDE4C1 % INH @ 10 μM: 7%
[5]
  PDE4D2 %INH @ 10 μM: 15%

## COc1ccc(C23C=CC(O)CC2N(C)CC3)cc1OC [Compound 023, (R, S, R) Mesembrenol]
[2]
  PDE4A1A % INH @ 10 μM: 15%
[3]
  PDE4B2 % INH @ 10 μM: 16%
[4]
  PDE4C1 % INH @ 10 μM: 9%
[5]
  PDE4D2 %INH @ 10 μM: 21%
